Data: patent US11998600B2, “Enhancing the therapeutic activity of an immune checkpoint inhibitor” (MaineHealth, priority 2015, dated 2024)

Assays:
[1] = test system: chick chorioallantoic membrane (CAM); test: Chick CAM inflammation assay, FGF-2 induced, antibody treatment; type: in vivo; details: FGF-2 stimulation in the absence of cortisone acetate; FIG. 3E
Procedure: The chick chorioallantoic membrane (CAM) assays were carried out with some modifications (19). For all experiments CAMs of 10-day-old chick embryos obtained from Charles River (North Franklin, CT) were separated from the shell membrane. Filter discs either non-treated (inflammation assays) pretreated (angiogenesis assays) with cortisone acetate (3.0 mg/ml) containing RPMI only or FGF-2 (40 ng). CAMs were either non-treated or treated topically with Mab XL313, XL166 or a non-specific control antibody (10 μg/embryo every 24 h for three consecutive treatments). […] At the end of the incubation period the embryos were sacrificed and the CAM tissues were analyzed. Angiogenesis was quantified by counting the number of angiogenic branching blood vessels within the area of the filter disc. The angiogenic index was determined by subtracting the mean number of blood vessel branch points from untreated CAMs from each experimental condition. […]
The chick CAM has been routinely used to assess inflammation and granulation tissue formation, which are largely dependent on infiltration of chick heterophils (the avian equivalent of neutrophils), macrophages and activated fibroblasts (36,37). To study the potential differential biological impact of RGD epitopes, FGF-2 induced inflammation was examined by carrying out similar experiments in the absence of cortisone acetate and quantifying CAM thickening. […]

[2] = test system: chick chorioallantoic membrane (CAM); test: Chick CAM inflammation assay, induction by RGD collagen peptides; type: in vivo; details: FGF-2, absence of cortisone acetate; FIG. 5D
Procedure: The chick chorioallantoic membrane (CAM) assays were carried out with some modifications (19). For all experiments CAMs of 10-day-old chick embryos obtained from Charles River (North Franklin, CT) were separated from the shell membrane. Filter discs either non-treated (inflammation assays) pretreated (angiogenesis assays) with cortisone acetate (3.0 mg/ml) containing RPMI only or FGF-2 (40 ng). CAMs were either non-treated or treated topically with Mab XL313, XL166 or a non-specific control antibody (10 μg/embryo every 24 h for three consecutive treatments). […] At the end of the incubation period the embryos were sacrificed and the CAM tissues were analyzed. Angiogenesis was quantified by counting the number of angiogenic branching blood vessels within the area of the filter disc. The angiogenic index was determined by subtracting the mean number of blood vessel branch points from untreated CAMs from each experimental condition. Eight to twelve embryos were used per condition and experiments were repeated at least three times.
The effects of the soluble RGD containing collagen peptides on inflammation were examined.

[3] = test system: chick embryos; test: Circulating Mab XL313 reactive epitope in chick embryo serum, solid-phase ELISA; type: in vivo; details: serum collected three days after FGF-2 stimulation, FIG. 5A
Procedure: Due to the differential expression and bio-distribution of the RGDKGE (SEQ ID NO. 1) epitope in angiogenic CAM tissues and its expression in macrophage-conditioned medium, it was determined whether a soluble circulating form of this RGDKGE (SEQ ID NO. 1) epitope could be generated. To examine this possibility, chick embryos were either un-treated or stimulated with FGF-2 and serum, and collected three days later. […] In contrast, a (P<0.05) 2-fold increase was detected in the levels of circulating XL313 epitope following FGF-2 stimulation. These findings indicated the differential release of a soluble form of this RGDKGE (SEQ ID NO. 1) containing collagen epitope.

[4] = test system: chick chorioallantoic membrane (CAM); test: Macrophage infiltration of FGF-2 stimulated CAMs (KUL1 staining); type: in vivo; details: FGF-2 stimulation, no cortisone acetate; FIG. 3D
Procedure: The chick chorioallantoic membrane (CAM) assays were carried out with some modifications (19). For all experiments CAMs of 10-day-old chick embryos obtained from Charles River (North Franklin, CT) were separated from the shell membrane. Filter discs either non-treated (inflammation assays) pretreated (angiogenesis assays) with cortisone acetate (3.0 mg/ml) containing RPMI only or FGF-2 (40 ng). CAMs were either non-treated or treated topically with Mab XL313, XL166 or a non-specific control antibody (10 μg/embryo every 24 h for three consecutive treatments). For peptide induction experiments, CAMs were stimulated with 100 ng/ml of the RGD peptides (P-1, P-2, P-C) in the presence or absence of the P38MAPK inhibitor, SB202190 (10 μM). At the end of the incubation period the embryos were sacrificed and the CAM tissues were analyzed. Angiogenesis was quantified by counting the number of angiogenic branching blood vessels within the area of the filter disc. The angiogenic index was determined by subtracting the mean number of blood vessel branch points from untreated CAMs from each experimental condition. […]
CAMs examined for accumulation of granulation tissue were harvested, fixed in 4% PFA and paraffin embedded and sectioned (4 μm) and stained with Giemsa. CAM tissues analyzed via immunofluorescence were harvested, embedded with OCT, snap frozen and sectioned (4 μM). […]

[5] = test system: PDL-1; test: PDL-1 Western blot, M21 melanoma cells attached to αvβ3 ligands; type: cell-based, human; details: immobilized epitope vs uncoated wells; 15 minute incubation; FIG. 15
Procedure: FIGS. 14A and 14B are blots of integrin αvβ3 expressing melanoma cells (M21 and CLL-49) and FIG. 14C is a blot depicting that endothelial cells (HUVEC) were allowed to attach to well coated with either a non-αvβ3 binding ligand (native collagen-IV) or an αvβ3 binding ligand (denatured collagen-IV). Whole cell lysates were prepared and the relative levels of PDL-1 or loading control β-actin were assessed by Western blot.
Integrin αvβ3 expressing melanoma cells (M21) were seeded on control uncoated wells or wells immobilized with the XL313 cryptic collagen epitope (RGDKGE (SEQ ID NO. 1)). Following a 15 minute incubation cell lysates were prepared. The relative levels of PDL-1 or loading control β-actin were assessed by Western blot.
Integrin αvβ3 expressing melanoma cells M21 (FIG. 14A) and CCL-49 (FIG. 14B) and endothelial cells (HUVEC) (FIG. 14C) were attached to wells coated with either a non-αvβ3 binding ligand (native collagen-IV) or an αvβ3 binding ligand (denatured collagen-IV). Whole cell lysates were prepared and the relative levels of PDL-1 or β-actin loading control were assessed.
Integrin αvβ3 expressing melanoma cells (M21) were seeded onto control uncoated wells or wells immobilized with the XL313 cryptic collagen epitope (RGDKGE (SEQ ID NO. 1)) (FIG. 15). Following an incubation period, cell lysates were prepared and relative levels of PDL-1 were assessed.

| Substance | CAMs showing robust formation of thick granulation tissue [1] | CAMs exhibiting extensive tissue thickening [2] | increase in levels of circulating XL313 epitope in serum [3] [fold] | macrophage infiltration of the CAMs, enhancement as compared to control [4] | levels of PDL-1 protein in M21 melanoma cells on immobilized epitope [5] |
| --- | --- | --- | --- | --- | --- |
| FGF-2: Fibroblast growth factor-2 from R&D Systems, stimulus of CAM angiogenesis and inflammation | approximately 50% | 55%-60% | 2 | over 2 fold | – |
| RGDKGE (immobilized on wells) [XL313 epitope, αvβ3 ligand] | – | – | – | – | enhanced levels of PDL-1 protein |
